Patent US9642361B2, “Method for changing the development pattern, increasing the growth and the accumulation of starch, changing the structure of starch and increasing the resistance to water stress in plants” (IDEN BIOTECHNOLOGY, S.L., priority 2010, dated 2017)

Legend:
[1] = tested on: Arabidopsis thaliana plants; assay: Starch content in leaves of Arabidopsis plants cultured next to solutions of volatile compounds; format: in vivo; details: for starch accumulation in leaves: 2 cubic centimeters of 5% aqueous solution in 500 cubic centimeter box, two days
Experimental: To that end, the plants were cultured in Petri dishes containing solid MS medium with 90 mM sucrose. The plants germinated and were grown for two weeks in growth chambers with a photoperiod of 16 h of light (300 μmol of photons s^−1 m^−2) and at a constant temperature of 24° C.
The Petri dishes containing completely developed plants were placed in 500 cubic centimeter grow boxes with the particularity that, instead of microbial cultures, […] were introduced in said boxes in each case: indol, DTT (dithiothreitol), NAA (1-naphthaleneacetic acid), β-mercaptoethanol, salicylic acid, jasmonic acid, cysteine, acetoin, ethanol, methanol, β-hydroxybutyrate, butanediol, propanoic acid, acetic acid, acetaldehyde, formic acid or butyric acid, without there being any physical contact between the plant and the solution. The ethylene was provided in the form of ethephon powders. The boxes were sealed and leaves were harvested after two days of incubation to analyze starch content. Leaves were harvested at the end of the light period. As a negative control, the Petri dishes containing completely developed plants were cultured for two days in sealed plastic boxes together with a Petri dish containing 2 cubic centimeters of water in the absence of any of the volatile compounds assayed.
Starch was measured using an amyloglucosidase-based test kit (Boehringer Mannheim, Germany).

detached potato leaves = assay: Starch content in detached potato leaves with added amino acids, with or without FVs; format: in vivo, Solanum tuberosum; details: exogenously added amino acid, +FV, 2 days
Experimental: FIG. 19: Graph depicting the starch content (expressed as μmoles of glucose per gram of fresh weight) measured in potato plants cultured for 2 days in MS supplemented with 90 mM sucrose and the indicated concentrations of cysteine, glycine, serine and methionine in the absence (−FV) or in the presence (+FV) of volatiles emitted by A. alternata grown in solid MS medium supplemented with 90 mM sucrose.
Therefore, it was investigated whether plastidial cysteine provision impairments are directly involved in MIVOISAP by measuring the starch content in detached potato leaves cultured in the presence and in the absence of FVs emitted by Alternaria alternata, and in the presence of different concentrations of cysteine.

[2] = tested on: leaves cut from Arabidopsis; assay: Starch accumulation in cut Arabidopsis leaves with transcription/translation inhibitors in presence of fungal volatiles; format: in vivo, Arabidopsis thaliana; details: 50 μM cycloheximide or 200 μM cordycepin; after 2 hours of incubation
Experimental: The experiment of section 5.1 was repeated, using in this case leaves cut from Arabidopsis incubated in Petri dishes with solid MS medium supplemented with 90 mM sucrose and, where appropriate, with 50 micromoles (μM) of translation inhibitor cycloheximide (Sigma) and 200 micromoles (μM) of transcription inhibitor cordycepin (Sigma) (Fritz, C. C. et al., 1991: Proc. Natl. Acad. Sci. USA 88: 4458-4462; Hayashi, T. and Takagi, S., 2003; Plant Cell Physiol. 44: 1027-1036; Dhonukshe et al., 2006: Developmental Cell 10: 137-150). The dishes were deposited in 500 cubic centimeter boxes in which cultures of Alternaria alternata had previously been deposited.

CC(=O)O [acetic acid]
starch accumulation in leaves [1]: promote starch overaccumulation

N[C@@H](CS)C(=O)O [cysteine]
MIVOISAP (starch content) in detached leaves (detached potato leaves): strongly suppressed

O=CO [formic acid]
starch accumulation in leaves [1]: promote starch overaccumulation
dose dependence of the effect on starch accumulation ([1]; solutions at 1%, 2% or 5% (v/v)): dose-dependent

Nc1ncnc2c1ncn2[C@@H]1O[C@H](CO)C[C@H]1O [cordycepin]
starch accumulation in presence of fungal volatiles [2]: strongly inhibit starch accumulation

CC=O [acetaldehyde]
starch accumulation in leaves [1]: promote starch overaccumulation

CCC(=O)O [propanoic acid]
starch accumulation in leaves [1]: promote starch overaccumulation

CCCC(=O)O [butyric acid]
starch accumulation in leaves [1]: promote starch overaccumulation

C[C@@H]1C[C@@H]([C@H](O)CC2CC(=O)NC(=O)C2)C(=O)[C@@H](C)C1 [cycloheximide]
starch accumulation in presence of fungal volatiles [2]: strongly inhibit starch accumulation
